± gives the expanded uncertainty stated by the source.
Conditions: Liquid; for mass density: 298.15 K, 101.33 kPa, Vibrating tube method; for Normal boiling temperature: Ebulliometric method (Recirculating still)

Row | SMILES | mass density [kg/m3] | Normal boiling temperature [°C]
1 | CC(=O)O [acetic acid] | 1042.5 ± 0.2 | 117.88 ± 0.2
2 | O [water] | 997.8 ± 0.2 | 100.00 ± 0.2
